The values below come from patent US9597407B2, “Targeted antimicrobial moieties” (C3 Jian, Inc., priority 2009, dated 2017).

Converted amounts (≈) assume the structure as drawn. Bridge positions count the residues as written; N and C are the ends. Square brackets hold non-standard residues; d marks the D form. Peptide text beside a SMILES is read from it. I, II: the chains in the order shown. Aoc = NCCCCCCCC(=O)O

Assay [1] concerns S. mutans. Description: Post-antibiotic effect assay, monoculture growth after 10 min treatment. The settings on record: peptide 10 min, then fresh medium. Format: cell-based, Streptococcus mutans. On the procedure: The activity and selectivity of MH-STAMPs after a 10 min incubation was determined by growth retardation experiments against targeted and untargeted bacteria in monocultures, as described previously (Id.). Cells from overnight cultures were diluted to ˜5×10^6 cfu/mL in MH (or TH with 1% sucrose for S. mutans), normalized by OD600 0.05-0.1 and seeded to 96-well plates. Cultures were then grown under the appropriate conditions for 2 h (3 h for S. mutans) prior to the addition of peptides for 10 min. Plates were then centrifuged at 3000×g for 5 min, the supernatants discarded, fresh medium returned (MH or TH without sucrose for S. mutans), and incubation resumed. Bacterial growth after treatment was then monitored over time by OD600.
MH-STAMP antimicrobial kinetics was ascertained utilizing a variation of the classical post-antibiotic effect assay, which measures the ability of an agent to affect an organism's growth after a short exposure period. Monocultures of MH-STAMP-targeted and untargeted organisms were exposed to M8(KH)-20, M8(BL)-20, BL(KH)-20, or unmodified BD2.20, then allowed to recover. […] Furthermore, replacement of the targeting region with a non-binding peptide abolishes specific activity.

Assay [2] deals with Staphylococcus aureus Newmann. Format: cell-based. To be noted: S. aureus; average MIC with standard deviation, n = 10 assays. On the procedure: (§1) Streptococcus mutans JM11 (spectinomycin resistant, UA140 background) was grown in Todd-Hewitt (TH) broth under anaerobic conditions (80% N2, 15% CO2, 5% H2) at 37° C. Merritt et al. (2005) J Microbiol Meth., 61: 161-170. All bacteria were grown overnight to an OD600 of 0.8-1.0 prior to appropriate dilution and antimicrobial testing.
(§2) Briefly, ˜1×10^5 cfu/mL bacteria were diluted in TH (S. mutans), or Mueller-Hinton (MH) broth (all other organisms) and distributed to 96-well plates. Serially-diluted (2-fold) peptides were then added and the plates incubated at 37° C. for 18-24 h. […] All experiments were conducted 10 times.

Assay [3] has as its system Klebsiella pneumoniae KAY 2026. Format: cell-based. The settings on record: K. pneumoniae; average MIC with standard deviation, n = 10 assays. On the procedure:
as §1, §2

The test system of assay [4] is P. aeruginosa. Description: Microbial population shift assay, mixed planktonic culture. Format: cell-based, Pseudomonas aeruginosa. To be noted: 10 μM peptide, 24 h, detection limit 200 cfu/mL. On the procedure:
(§3) Peptide (10 μM) or mock-treatment (1×PBS) was then added and samples were incubated at 37° C. for 24 h under anaerobic conditions (80% N2, 15% CO2, 5% H2). […] Plates were then incubated 37° C. under aerobic conditions (TH plates were incubated anaerobically) and colonies counted after 24 h to determine survivors. […] Gram stains and direct microscopic observation (from select isolated colonies) were undertaken to confirm species identity (data not shown). The detection limit of the assay was 200 cfu/mL.
(§4) We hypothesized that potential MH-STAMP dual-functionality could affect a particular set of bacteria within a mixed population, thereby promoting the outgrowth of non-targeted organisms and “shifting” the constituent makeup. To examine this possibility, defined mixed populations of planktonic cells were treated continuously and the make-up of the community examined after 24 h.

Assay [5] has as its system S. mutans. Format: cell-based, Streptococcus mutans. To be noted: average MIC with standard deviation, n = 10 assays. On the procedure:
(§5) The active AMPs, STAMPs and the like can be identified and/or validated using an in vitro screening assay. Indeed, in many instances the AMPs and/or STAMPS described herein will be used in vitro as preservatives, topical antimicrobial treatments, and the like.
(§6) Typically, the in vitro antimicrobial activity of antimicrobial agents is tested using standard NCCLS bacterial inhibition assays, or MIC tests (see, National Committee on Clinical Laboratory Standards “Performance Standards for Antimicrobial Susceptibility Testing,” NCCLS Document M100-S5 Vol. 14, No. 16, December 1994; “Methods for dilution antimicrobial susceptibility test for bacteria that grow aerobically-Third Edition,” Approved Standard M7-A3, National Committee for Clinical Standards, Villanova, Pa.).
as §2

The test system of assay [6] is S. epidermidis. The assay is described as follows: Microbial population shift assay, mixed planktonic culture. Format: cell-based, Staphylococcus epidermidis. The settings on record: 10 μM peptide, 24 h, detection limit 200 cfu/mL. On the procedure:
as §3, §4

Assay [7] has as its system S. epidermidis. To be noted: average MIC with standard deviation, n = 10 assays. On the procedure:
(§7) The active AMPs, STAMPs and the like can be identified and/or validated using an in vitro screening assay.
(§8) Peptides were evaluated for basic antimicrobial activity by broth microdilution, as described previously (Eckert et al. (2006) Antimicrob Agents Chemother., 50: 3651-3657; Eckert et al. (2006) Antimicrob Agents Chemother., 50: 1480-1488). Briefly, ˜1×10^5 cfu/mL bacteria were diluted in TH (S. mutans), or Mueller-Hinton (MH) broth (all other organisms) and distributed to 96-well plates. Serially-diluted (2-fold) peptides were then added and the plates incubated at 37° C. for 18-24 h. […] All experiments were conducted 10 times.

For assay [8], the system named is P. aeruginosa. To be noted: average MIC with standard deviation, n = 10 assays. On the procedure:
as §7, §8

In assay [9] the test system is E. coli. Format: cell-based, Escherichia coli. To be noted: average MIC with standard deviation, n = 10 assays. On the procedure:
as §5, §6, §2

Assay [10] relates to E. coli. Description: Microbial population shift assay, mixed planktonic culture. Format: cell-based, Escherichia coli. The settings on record: 10 μM peptide, 24 h, detection limit 200 cfu/mL. On the procedure:
as §3, §4

The subject of assay [11] is S. mutans. The description is as above. Format: cell-based, Streptococcus mutans. To be noted: 10 μM peptide, 24 h, detection limit 200 cfu/mL. On the procedure:
as §3, §4

`CC[C@H](C)[C@H](NC(=O)[C@H](Cc1ccccc1)NC(=O)CCCCCCCNC(=O)[C@H](CCCCNC(=O)CNC(=O)CNC(=O)CNC(=O)[C@H](C)NC(=O)[C@H](CCC(=O)O)NC(=O)[C@H](CC(N)=O)NC(=O)[C@H](C)NC(=O)[C@H](C)NC(=O)[C@@H](N)CC(=O)O)NC(=O)CNC(=O)CNC(=O)CNC(=O)[C@H](CCCNC(=N)N)NC(=O)[C@H](CC(N)=O)NC(=O)[C@H](CC(C)C)NC(=O)[C@H](Cc1ccccc1)NC(=O)[C@H](CCCNC(=N)N)NC(=O)[C@H](Cc1ccccc1)NC(=O)[C@H](Cc1ccccc1)NC(=O)[C@@H](NC(C)=O)[C@@H](C)O)C(=O)N[C@@H](CCCNC(=N)N)C(=O)N[C@@H](CCCCN)C(=O)N[C@@H](Cc1ccccc1)C(=O)N[C@@H](CC(C)C)C(=O)N[C@@H](CCCCN)C(=O)N[C@@H](CCCCN)C(=O)N[C@@H](Cc1c[nH]c2ccccc12)C(=O)N[C@@H](CC(C)C)C(=O)N[C@@H](CC(C)C)C(N)=O` [M8(BL)-20] (I: Ac-TFFRFLNRGGGK[Aoc]FIRKFLKKWLL-NH2 / II: H-DAANEAGGG; amide I:12-II:C): in the assay with S. mutans [1], the “S. mutans growth (OD600) after treatment” value is “effectively retarded”. For the same compound, the MIC in assay [2] was determined as 18.05 ± 6.58 µM (≈ 68.6 µg/mL); in [3], 6.88 ± 1.98 µM (≈ 26.1 µg/mL); against S. mutans [5], 6.25 µM (≈ 23.7 µg/mL); against S. epidermidis [7] it was 6.25 µM (≈ 23.7 µg/mL); against P. aeruginosa [8], 50 µM (≈ 190 µg/mL); with E. coli [9], 5.97 ± 0.94 µM (≈ 22.7 µg/mL). For the same compound, in the assay with P. aeruginosa [4], the “surviving P. aeruginosa cfu/mL” value is “not affected or affected to a lesser extent”. Besides, the “surviving S. epidermidis cfu/mL” value in the assay with S. epidermidis [6] was “not affected or affected to a lesser extent”. Further, the “surviving E. coli cfu/mL” value with E. coli [10] is given as “not affected or affected to a lesser extent”. For the same compound, the “surviving S. mutans cfu/mL” value in the assay with S. mutans [11] is reported as “greatly reduced compared to input cfu/mL”.

As a reminder, the MIC is the lowest concentration that inhibits growth of the organism. High values mean weaker potency, low ones greater potency.
